Each structure is given as a SMILES string. “And” between values parts separate entries of the source, which are not always exact repeats. Identical values can stand only once. The source made the active and inactive calls. How the calls were made is not given here.

Broadly, the Kd is the equilibrium constant for the complex coming apart.

The target of this experiment is Peptidyl-prolyl cis-trans isomerase FKBP1A (Homo sapiens) (UniProt P62942). The experiment can be described thus: small-molecule binding to FKBP12 – biophysical, NMR detection (AID 608). The following applies: purified FKBP12.
Chain of Peptidyl-prolyl cis-trans isomerase FKBP1A (Homo sapiens) (P62942 whole entry, looked up): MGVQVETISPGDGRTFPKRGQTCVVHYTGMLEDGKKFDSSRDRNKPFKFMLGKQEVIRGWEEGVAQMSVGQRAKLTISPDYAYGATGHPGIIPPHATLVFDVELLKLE
As to `Cc1ccc(C(=O)N2CCC(C(=O)O)CC2)cc1`, the Kd is > 4 mM (inactive).

Consider `O=C1CCC(C(=O)NCc2ccc(Cl)cc2)N1` (stereo unspecified), for which the Kd was > 4 mM (inactive).

For `CNC(C)[C@H](O)c1ccccc1` (stereo partly specified), the Kd was > 4 mM (inactive).

For `Nc1cc(F)nc(F)n1`, the Kd is > 4 mM (inactive).

Consider `Cc1cc(=O)n2[nH]c(C)cc2n1`, for which the Kd was > 4 mM (inactive).

As to `CC(=O)O[C@H]1C[C@@H](OC(C)=O)C(C)(C)C2CC(=O)[C@]3(C)C(CC[C@@]4(C)[C@H](C(=O)O)OC(=O)C5OC543)[C@]21C` (stereo partly specified), the Kd is > 4 mM (inactive).

For `O=C(Nc1ccccn1)c1cc(-n2cnnc2)ccc1Cl`, the Kd is > 4 mM (inactive).

Turning to `Nc1nsc(-c2ccccc2)n1`, the Kd is > 4 mM (inactive).

As for `O=C(C1CCCCC1)N1CCN(c2ccccc2F)CC1`, the Kd was > 4 mM (inactive).

Take `FC(F)(F)c1cccc(Cn2c(-c3cscn3)nc3ccccc32)c1`: the Kd result is “inactive”.

For `Cc1c(C(=O)NC2=NCCS2)oc2ccccc12`, the Kd is > 4 mM (inactive).

Regarding `CCOc1ccccc1C(=O)NC1=NCCS1`, the Kd was > 4 mM (inactive).

`Nc1ccc2ncsc2c1`: the Kd is > 4 mM (inactive).

With `CCc1ccc2oc(-c3cc(N)cc(C)c3O)nc2c1`, the Kd is > 4 mM (inactive).

With `O=C(O)c1scc2c1CCCC2`, the Kd was > 4 mM (inactive).

With `C=C1C2=CC(=O)O[C@@H](c3ccoc3)[C@]2(C)CCC1[C@@]1(C)C=CC(=O)C(C)(C)[C@@H]1CC(=O)OC` (stereo partly specified), the Kd is > 4 mM (inactive).

Consider `O=C(CC1CCCCC1)N1CCN(c2ccccn2)CC1`, for which the Kd is > 4 mM (inactive).

On to `C[C@@H]1C(=O)OC2[C@H](O)C34[C@@H]5OC(=O)[C@@]3(O[C@@H]3OC(=O)[C@H](O)[C@@]34[C@H](C(C)(C)C)[C@H]5O)[C@]21O` (stereo partly specified), for which the Kd is > 4 mM (inactive).

In the case of `COC(=O)c1ccc(N2CCOCC2)nc1`, the Kd is > 4 mM (inactive).

Turning to `CC1CCN(C(=S)c2ccccc2O)CC1`, the Kd is > 4 mM (inactive).

`CN(C)c1nc(N2CCOCC2)c2cnn(C)c2n1`: the Kd is > 4 mM (inactive).

With `O=c1[nH]c2sc3c(c2c2nncn12)CCCC3`, the Kd was > 4 mM (inactive).

Regarding `CNc1nnc(Cc2csc(N)n2)s1`, the Kd was > 4 mM (inactive).

`Cc1ccc(-c2c(C)n([O-])c(C)c(C)[n+]2=O)cc1`: the Kd was > 4 mM (inactive).

With `COc1cc(OC)c2c(c1)O[C@H](c1ccc(OC)c(OC)c1)[C@@H](O)C2`, the Kd is > 4 mM (inactive).

Take `O=C(CSc1ccc(C(F)(F)F)cc1[N+](=O)[O-])N1CCOCC1`: the Kd is 0.448 mM.

With `O=C(NCC1CCNCC1)c1ccccn1`, the Kd was > 4 mM (inactive).

In the case of `CN1C(=O)CC(=O)N(C)c2ccccc21`, the Kd was > 4 mM (inactive).

In the case of `CCc1ccc(C(=O)N2CCCC2)s1`, the Kd was > 4 mM (inactive).

Regarding `O=C(NCO)c1ccc([N+](=O)[O-])cc1`, the Kd was > 4 mM (inactive).

Consider `COc1c(O)cc2c(-c3ccccc3)cc(=O)oc2c1OC`, for which the Kd was > 4 mM (inactive).

Regarding `CC(C)=CC(=O)Nc1ccc(S(N)(=O)=O)cc1`, the Kd was > 4 mM (inactive).

`Cn1ncc(NC(=O)Nc2ccc(F)cc2F)c1C(N)=O`: the Kd was > 4 mM (inactive).

In the case of `CCOC(=O)C1CCN(c2ccc(C#N)cc2)CC1`, the Kd was > 4 mM (inactive).

Consider `CC(CC(=O)NN)C1(O)CCCCC1` (stereo unspecified), for which the Kd was > 4 mM (inactive).

Take `O=S(=O)(NCc1ccco1)N1CCOCC1`: the Kd is > 4 mM (inactive).

On to `CS(=O)(=O)c1nncn1-c1ccccc1`, for which the Kd was > 4 mM (inactive).

`O=C(CSc1ccc(Cl)cc1)N1CCOCC1`: the Kd is 0.014 mM and 0.019 mM.

Regarding `Cc1sc2nc(-c3ccco3)oc(=O)c2c1C`, the Kd was > 4 mM (inactive).

On to `c1coc(-c2nc(-c3ccncc3)no2)c1`, for which the Kd is > 4 mM (inactive).

Consider `CC1/C(=N/O)C[C@@H]2C[C@H]1C2(C)C` (stereo partly specified), for which the Kd was > 4 mM (inactive).

With `CC(NC(=O)C1CCCCC1)C(=O)NC1=NCCS1` (stereo unspecified), the Kd is > 4 mM (inactive).

As to `O=C(O)[C@H](O)[C@@](O)(Cc1ccc(O)cc1)C(=O)O`, the Kd was > 4 mM (inactive).

Consider `CN(C)S(=O)(=O)Nc1ccc(Br)cc1F`, for which the Kd was > 4 mM (inactive).

In the case of `O=c1cc(-c2ccccc2)oc2c(O)c(O)ccc12`, the Kd is > 4 mM (inactive).

Consider `Oc1ccc([C@H]2Oc3cc(O)cc(O)c3C[C@H]2O)cc1`, for which the Kd is > 4 mM (inactive).

In the case of `Cc1cc(=O)[nH]c(N2CCN(Cc3ccccc3)CC2)n1`, the Kd was > 4 mM (inactive).

Regarding `Cc1cc(C)c2nncn2n1`, the Kd is > 4 mM (inactive).

`Cc1cc(C(=O)Nc2ccon2)cs1`: the Kd was > 4 mM (inactive).

For `CN1CCC(NC(=O)c2cnccn2)CC1`, the Kd is > 4 mM (inactive).

Turning to `Fc1ccc(N2CCNCC2)cc1`, the Kd is > 4 mM (inactive).

`COc1ccc2[nH]cc(CCNC(C)=O)c2c1`: the Kd was > 4 mM (inactive).

Turning to `OCCNC(=S)Nc1ccc(F)cc1`, the Kd is > 4 mM (inactive).

As to `NCc1csc(-c2cccs2)n1`, the Kd is > 4 mM (inactive).

For the compound `OCCN1CCN(C(=S)c2ccc(Cl)cc2)CC1`, the Kd was > 4 mM (inactive).

Turning to `CC(=O)Nc1ccc(S(N)(=O)=O)cc1`, the Kd was > 4 mM (inactive).

Consider `CCC1(CC)C(=O)NC(=O)N=C1N`, for which the Kd is > 4 mM (inactive).

For the compound `O=C1CC(N2CCC(O)CC2)C(=O)N1c1ccc(F)cc1` (stereo unspecified), the Kd was > 4 mM (inactive).

In the case of `CC(=O)Nc1ccc(Nc2nnc(C)c(=O)[nH]2)cc1`, the Kd was > 4 mM (inactive).

With `O=c1[nH]oc2ccccc12`, the Kd is > 4 mM (inactive).

As to `CC(C)c1ccc2c(c1O)CC[C@H]1C3=C(CC[C@]21C)C(=O)OC3`, the Kd is > 4 mM (inactive).

For the compound `O=C(Nc1ccc(-c2nnco2)cc1)c1ccccc1`, the Kd is > 4 mM (inactive).

As to `O=C(O)CNS(=O)(=O)c1cccs1`, the Kd was > 4 mM (inactive).

As to `Cc1nn(CC(=O)N2CCCCC2)c(=O)c2ccccc12`, the Kd is > 4 mM (inactive).

For the compound `Cc1cc(C(=O)N2CCOCC2)c(C)o1`, the Kd is > 4 mM (inactive).

Take `COc1ccccc1-c1nc(-c2ccc(C)nc2OC)no1`: the Kd was > 4 mM (inactive).

On to `COC(=O)CCC(C)C1CCC2C3CCC4C[C@H](O)CC[C@]4(C)C3C[C@H](O)[C@]12C` (stereo partly specified), for which the Kd was > 4 mM (inactive).

On to `COc1ccc2c(c1)OC/C(=C\c1ccc(OC)c(O)c1)C2=O`, for which the Kd is > 4 mM (inactive).

With `O=C(O)c1ccc(-c2cccs2)s1`, the Kd is > 4 mM (inactive).

As to `CN1C2C[C@H](OC(=O)[C@H](CO)c3ccccc3)C[C@H]1[C@@H](O)C2`, the Kd is > 4 mM (inactive).

For the compound `Cc1nnc(NCc2cccnc2)[nH]c1=O`, the Kd was > 4 mM (inactive).

For `O=C(Nc1cnccn1)c1cccnc1`, the Kd is > 4 mM (inactive).

`Cc1ccc(C(=O)Nn2cnnc2)s1`: the Kd was > 4 mM (inactive).

Regarding `CC1(C)C[C@@H]2C(=O)CC[C@H]3O[C@]3(C)CC[C@H]21`, the Kd is > 4 mM (inactive).

As to `COc1cc(N)ccc1NC(=O)c1cccs1`, the Kd was > 4 mM (inactive).

On to `COc1cc(OC)c2c(OC)c(-c3ccc4c(c3)OCO4)c(=O)oc2c1`, for which the Kd was > 4 mM (inactive).

For the compound `O=C1C2CC=C(Cl)CC2C(=O)N1c1ccccc1O` (stereo unspecified), the Kd is > 4 mM (inactive).

`CN1CCN(C(=O)c2ccco2)CC1`: the Kd was > 4 mM (inactive).

`c1ccc(CCc2nc(-c3ccccn3)no2)cc1`: the Kd was > 4 mM (inactive).

`CNC(=O)C(=O)NCc1ccc(C)cc1`: the Kd was > 4 mM (inactive).

For `CN(C)C(=O)CSc1nc2ccccc2c(=O)[nH]1`, the Kd is > 4 mM (inactive).

Consider `Cc1ccccc1C(=O)Nc1cccc(N)c1`, for which the Kd was > 4 mM (inactive).

Turning to `C=CCCCCCCCCCCCC(O)CC(O)CO` (stereo unspecified) (tested in a mixture with another compound), the Kd was > 4 mM (inactive).

`Cc1ccc(NC(=O)/C=C2\SC(=O)NC2=O)cc1`: the Kd is > 4 mM (inactive).

`COc1ccccc1C(=O)Nc1ccccn1`: the Kd was > 4 mM (inactive).

In the case of `CNc1ccccc1C(=O)O`, the Kd was > 4 mM (inactive).

For `O=C(O)CCC1=C2c3ccccc3CCN2C(=O)CC1`, the Kd was > 4 mM (inactive).

As to `O=c1sc2ccccc2n1CN1CCOCC1`, the Kd is > 4 mM (inactive).

For the compound `O=C1c2ccccc2C(=O)N1/N=C/c1ccc[nH]1`, the Kd was > 4 mM (inactive).

Consider `Nc1nc2ccc(S(N)(=O)=O)cc2s1`, for which the Kd is > 4 mM (inactive).

For `COc1ccc2c(c1OC)C(=O)N(c1ncn[nH]1)C2`, the Kd was > 4 mM (inactive).

Take `NCc1c[nH]c2ccccc12`: the Kd was > 4 mM (inactive).

As for `O=C(Nc1cccc(O)c1)c1ccccc1`, the Kd was > 4 mM (inactive).

As to `CC(=O)Oc1ccc(/C=C/c2cc(OC(C)=O)cc(OC(C)=O)c2)cc1`, the Kd is > 4 mM (inactive).

As to `C=C1CSc2nc(=O)c3c(C)c(C)sc3n21`, the Kd was > 4 mM (inactive).

Consider `O=c1c2ccccc2ncn1C1CCCCC1`, for which the Kd was > 4 mM (inactive).

As for `CC[C@H](CCC(C)[C@H]1CCC2C3CCC4C[C@@H](O)CC[C@]4(C)C3CC[C@@]21C)C(C)C` (stereo partly specified), the Kd is > 4 mM (inactive).

Consider `Cn1ncc(C(=O)O)c1-c1ccccc1`, for which the Kd was > 4 mM (inactive).

Consider `CC1(O)CC2C=CC1C2` (stereo unspecified), for which the Kd was > 4 mM (inactive).

Take `O=C(O)c1cc(O)c2c(c1)[C@@H]([C@H]1c3cc(C(=O)O)cc(O)c3C(=O)c3c(O[C@H]4O[C@H](CO)[C@@H](O)[C@H](O)[C@H]4O)cccc31)c1cccc(O[C@H]3O[C@H](CO)[C@@H](O)[C@H](O)[C@H]3O)c1C2=O`: the Kd was > 4 mM (inactive).

For the compound `CC(=O)O[C@H]1CC[C@@]2(C)C(=CCC3C2CC[C@@]2(C)C3CC[C@@H]2C(C)CCCC(C)C)C1` (stereo partly specified), the Kd is > 4 mM (inactive).

The record behind these values is PubChem BioAssay AID608 (Sanford-Burnham Center for Chemical Genomics, 2007).
